Earlier results, collected in patent publication US11672748B2, “Aqueous hair conditioner compositions containing solubilized anti-dandruff actives” (The Procter & Gamble Company, priority 2020, dated 2023).

Conditions: in water

**Q.** With `C=CC(C)CCCC(C)(C)O` (centres unmarked) [Dihydro Myrcenol] as the compound, how does the “Solubility in H2O (g/L)” value read?
**A.** Its value is “Negligible (lower than 0.1) g/L”.

**Q.** With `CCCCCCCCCCCC(=O)N(C)CC(=O)OC(C)C` [Isoropyl N-Lauroyl Sarcosinate] as the compound, how does the “Solubility in H2O (g/L)” value read?
**A.** Its value is “(lower than 0.1) g/L”.
